# Assay results taken from patent US9446087B2, “Anti-resorptive and bone building dietary supplements and methods of use” (priority 2006, dated 2016).
# Several values for one entry are separate records, joined by “and”; a condition that tells them apart may be missing. Identical values can stand only once. Marks after values point to notes of the source that are not given here.
# How the values were obtained:
# Neonatal murine calvaria = test: Calvarial Assay to Measure Bone Growth; assay type: cell-based, Swiss white mice
# Procedure: Neonatal murine calvaria from 4 day old Swiss white mice are excised, placed into BGJ media (Sigma), and cut in half along the midline suture. One milliliter of BGJ media supplemented with 0.1% bovine serum albumin (BSA) is added to each well of a 12 well tissue culture plate (Costar) to which the relevant factors or vehicles are added. Each half calvaria is placed on a stainless steel grid in the above media at the media/air interface. Usually 4 bones per experimental group are used. […] Factors to be tested are added on Day 0 (the day of dissection) and media is changed at 24 and 96 hours (if a 7 day assay is required). Calvaria are maintained in humidified air (5% Co2), at 37° C. Following the period of incubation, the calvaria are then removed and fixed overnight in 10% formalin. The calvaria are then decalcified in 14% EDTA overnight and are then embedded in paraffin wax. Sections are then cut, using a standard microtome, along the midline suture to reveal the coronal suture and the region posterior to this suture. Four micrometer sections were taken initially and at two sequential […] depths. Sections are placed on coated glass slides (Superfrost plus, Fisher Scientific, Pittsburgh, Pa.) and stained with hematoxylin and eosin. The total and new bone area (expressed as mm^2), suture thickness (mm), and number of cells lining the bone surface are determined in the section posterior to the […] suture. Histomorphometric analysis is performed using the Osteomeasure System (Osteometrics INC, Atlanta, Ga.).
# BMP-2 protein = test: BMP-2 Protein Expression Assay (Hu09 cells, ELISA); assay type: cell-based
# Procedure: The cells are treated with different proteasome inhibitors for 24 hours. After incubation, the conditioned media is transferred into microcentrifuge tubes and centrifuged at 14,000 rpm for 2-3 minutes to remove cellular debris. The concentration of BMP-2 protein in the supernatant is then determined using the standard BMP-2 Elisa Kit (R&D ELISA KIT DBP200). Recombinant hBMP-2 (R&D) is used as a standard.
# BMP-2 promoter = test: BMP2 Promoter assay (2T3-BMP2-Luciferase cells, luciferase); assay type: cell-based, murine
# [1] = system: calvaria (skull bones) from 4 day old pups; test: Calvarial Assay to Measure Inhibition of Bone Resorption (45Ca release); assay type: cell-based, CD-1 mice
# Procedure: In order to label cells of newborn mice in utero, pregnant CD-1 female mice (at timed day 15) were injected with ^45Ca (25 uCi/mouse). […] The bones were incubated at 37° C. in a 5% CO2 humidified incubator for a period of 24 hours following which they were transferred to wells containing 1 ml media with factors added (IL-1, PTH and or compounds.) The treated bones were incubated under the above conditions for a further 72 hours. […] The results were expressed as % ^45Ca release and can be further reported as T/C ratios. For some factors and compounds, modification of this procedure can be used. As most of the osteoclasts are formed in the calvaria following the preincubation period, the factors that affect osteoclast formation may have a greater effect during the preincubation period. Thus, for a number of the compounds, they were included in the preincubation media.
# RANK-L [2] = test: Inhibition of RANK-L production/release (IL-1b stimulated MG-63 cells, ELISA); assay type: cell-based, human
# Procedure: Weigh between 150 to 250 mg of each ingredient into a 15 ml conical bottomed tube. […] For solvent control, mix 1.5 ml DMSO, 0.9 ml ethanol, and 0.6 ml water. Vortex thoroughly. Sonicate for 10 minute in water bath, room temperature. Vortex thoroughly again. Dilute ingredient stocks in fresh phenol red-free media. Human osteosarcoma cell line, MG-63 (ATCC #CRL-1427), is maintained in phenol-red containing MEM (as recommended by ATCC) at 37° C. and 5% CO2. Twenty-four hours prior to experimentation, 3×10^5 cells are seeded in 12-well plates in phenol-red free MEM. […] Stock solution of TGF-beta is 30 μg/ml (from R&D Systems, cat #100-B-001). After pretreatment incubation period, […] IL-1b (Calbiochem (catalog #407615) and stock solution at 10 μg/ml, cat #407615) were added to the cell cultures for 18 hours at 37° C. Supernatant media from the treated and stimulated cells were removed and total RANK-L proteins were measured using RANK-L ELISA (in triplicate) as described by manufacturer (from APOTECH, catalog #APO-54N-016-k101). The resulting protein quantity was compared to that of media (null) treated stimulated cells to determine percent decrease in total RANK-L protein.
# BMP-2 = BMP-2 Gene Expression Assay (MG-63 cells, real time PCR); assay type: cell-based, human; settings: 10 μg/ml
# Procedure: It is also possible to test for BMP-2 gene expression and protein expression using assays similar to those described above for testing BMP-2 promoter activity. In particular, for gene expression, the human osteosarcoma cell line, MG-63 (ATCC# CRL-1427), is maintained in phenol-red containing MEM (as recommended by ATCC) at 37° C. and 5% CO2. Twenty-four hours prior to experimentation, 3×10^5 cells are seeded in 12-well plates in phenol-red free MEM. […] After an overnight incubation, RNA is extracted using conventional trizol/guanidine isothiocyanate based lysis. The isolated RNA was digested with RNase-free DNase I to remove any DNA contamination and then reverse transcribed to cDNA using random hexamer as well as oligo(dT) primers according to the manufacturer's instructions (Stratagene). Quantitative real time PCR is performed using FAM-labeled specific primers for BMP-2 and HEX-labeled specific primers for 18S rRNA (Invitrogen). All reactions are carried out in triplicate and the relative amount of mRNAs in treated versus untreated samples is calculated using the comparative CT method established by Applied Biosystems (2001). Gene expression changes of 2-fold or greater are considered significant.
# RANK-L [3] = test: RANK-L gene expression (IL-1b stimulated MG63 cells, qPCR); assay type: cell-based, human; settings: 3 μg/ml, stimulus alone
# Procedure: Punicalagin test samples are extracted from pomegranates, including from pomegranate peels, skins, fleshy fruit, and seeds using 100% DMSO at 100 mg/ml. Particulate matter in the extraction is not removed. The punicalagin test samples are diluted in MEM without phenol red (estrogenic) and 0.1% FBS to lower background signaling to ten times the final concentrations. Final DMSO concentrations are kept below 0.2% and are kept constant during treatments. DMSO solvent control is used in the untreated group.
# MG63 cells (ATCC #CRL-1472), a human-derived osteosarcoma cell line, are plated at 200,000 cells per well in a 12 well plate with phenol red free MEM at 10% FBS. The next day the media is changed to phenol red free MEM at 0.1% FBS. […]
# […] The treated cells the stimulus, IL-1b, are then allowed to incubate for 16 hours at 37° C.
# After 16 hours the cells are lysed and the RNA is extracted from the cells with the RNasy purification kit (Qiagen). RNA is reverse transcribed to cDNA and quantified by qPCR using 2-step qRT-PCR reagents (Invitrogen), and 4 μL of purified RNA. Annealing temperature is 57° C. in the Stratagene Mx4000 with 1 μL of RANK-L gene specific primers in a 50 μL reaction (10 μM initial concentration; HLUX3013920, Invitrogen Inc.).
# RANK-L and GAPDH gene expression Ct data are obtained. RNA is quantified with adjustments for GAPDH expression. […]
# [4] = system: type IV collagenase protein (matrix metalloproteinase-9/MMP9); test: MMP9 protein expression in IL-1B stimulated keratinocyte/fibroblast co-culture; assay type: cell-based; settings: 10 ng/ml, stimulus alone; untreated 1.0
# Procedure: Keratinocytes and fibroblasts were co-cultured in DMEM containing 0.5% BSA. Co-cultures were exposed to various concentrations of punicalagins (ranging from 0.1%-10%) were extracted from pomegranates. Specifically, the ability of the pomegranate extracts to inhibit type IV collagenase protein (matrix metalloproteinase-9/MMP9) expression at concentrations of 1.0 μg/ml, 10 μg/ml, and 100 μg/ml were tested. Following exposure to the pomegranate extracts, the co-culture cells were stimulated with 10 ng/ml of IL-1B for 18 hours. Following stimulation with IL-1B for 18 hours, and MMP9 concentration was determined in the media as shown below in Table 14.
compound,measurement,setting,value
"CC(C)Oc1ccc2c(=O)c(-c3ccccc3)coc2c1 [I, 7-isopropoxy isoflavone]",Calvarial Assay Results- Bone formation,Neonatal murine calvaria; 1 μg/ml,2.44 ± 0.66 mm^2 × 10^−3
same,Calvarial Assay Results- Bone formation,Neonatal murine calvaria; 10 μg/ml,6.05 ± 1.12 mm^2 × 10^−3
same,Calvarial Assay Results- Bone formation,Neonatal murine calvaria; 100 μg/ml,7.04 ± 0.69^a mm^2 × 10^−3
same,BMP-2 Protein Expression,BMP-2 protein; 1 μg/ml,2.4 FOLD
same,BMP-2 Protein Expression,BMP-2 protein; 10 μg/ml,1.8 FOLD
same,BMP-2 Protein Expression,BMP-2 protein; 100 μg/ml,1.8 FOLD
same,BMP2 Promoter assay (ratio to control),BMP-2 promoter; 0.05 μg/ml,1.00 FOLD
same,BMP2 Promoter assay (ratio to control),BMP-2 promoter; 0.1 μg/ml,0.90 FOLD
same,BMP2 Promoter assay (ratio to control),BMP-2 promoter; 0.2 μg/ml,1.00 FOLD
same,BMP2 Promoter assay (ratio to control),BMP-2 promoter; 0.4 μg/ml,0.90 FOLD
same,BMP2 Promoter assay (ratio to control),BMP-2 promoter; 0.8 μg/ml,1.20 FOLD
same,BMP2 Promoter assay (ratio to control),BMP-2 promoter; 1.6 μg/ml,1.50 FOLD
same,BMP2 Promoter assay (ratio to control),BMP-2 promoter; 3.2 μg/ml,2.10 FOLD
same,BMP2 Promoter assay (ratio to control),BMP-2 promoter; 6.3 μg/ml,2.90 FOLD
same,BMP2 Promoter assay (ratio to control),BMP-2 promoter; 12.5 μg/ml,3.60 FOLD
same,BMP2 Promoter assay (ratio to control),BMP-2 promoter; 25 μg/ml,3.90 FOLD
same,BMP2 Promoter assay (ratio to control),BMP-2 promoter; 50 μg/ml,4.40 FOLD
same,BMP2 Promoter assay (ratio to control),BMP-2 promoter; 100 μg/ml,4.50 FOLD
same,"Inhibition of Bone Resorption/Release of Ca^2+, % Release",[1]; IL-1 + 1 μg/ml,38.00 ± 1.41 % Release
same,"Inhibition of Bone Resorption/Release of Calcium By Combinations of Extracts, % Release",[1]; IL-1 + 1 μg/ml,29.75 ± 4.54 % Release
same,"Inhibition of Bone Resorption/Release of Ca^2+, % Release",[1]; IL-1 + 10 μg/ml,32.50 ± 3.30 % Release
same,"Inhibition of Bone Resorption/Release of Calcium By Combinations of Extracts, % Release",[1]; IL-1 + 10 μg/ml,30.25 ± 4.03 % Release
same,"Inhibition of Bone Resorption/Release of Ca^2+, % Release",[1]; IL-1 + 100 μ/ml,19.25 ± 1.03^a % Release
same,"Inhibition of Bone Resorption/Release of Calcium By Combinations of Extracts, % Release",[1]; IL-1 ± 100 μg/ml,17.50 ± 1.66^a % Release
same,RANK-L inhibition (%),"RANK-L [2]; 10 μg/ml, listed as Ipriflavone (Ostivone)",0 ± 4.3% and 2.8 ± 3.9% and 0 ± 2.5%
same,% Change in Production/Release Levels (compared to untreated control),RANK-L [2]; tested at 1 μg/ml,No effect
same,Fold Change in Gene Expression,BMP-2,No effect
IL1B: IL-1b stimulus (Calbiochem),RANK-L Expression (fold increase),RANK-L [3],3.3 ± 0 fold increase
same,MMP9 protein expression (fold of untreated),[4],1.65
